The values that follow come from patent US20230365592A1 (Agios Pharmaceuticals, Inc., priority 2022, published 2023).

What is called AC50 is the concentration giving half of the maximal activity seen.

Molecules are shown by their SMILES. Bounds are passed on as bounds.

The test concerns the target T1, human PAH with the R408W mutation (Homo sapiens, UniProt P00439, R408W).
T1 construct: expressed in transfected cells
T1 sequence (P00439 1-452 R408W): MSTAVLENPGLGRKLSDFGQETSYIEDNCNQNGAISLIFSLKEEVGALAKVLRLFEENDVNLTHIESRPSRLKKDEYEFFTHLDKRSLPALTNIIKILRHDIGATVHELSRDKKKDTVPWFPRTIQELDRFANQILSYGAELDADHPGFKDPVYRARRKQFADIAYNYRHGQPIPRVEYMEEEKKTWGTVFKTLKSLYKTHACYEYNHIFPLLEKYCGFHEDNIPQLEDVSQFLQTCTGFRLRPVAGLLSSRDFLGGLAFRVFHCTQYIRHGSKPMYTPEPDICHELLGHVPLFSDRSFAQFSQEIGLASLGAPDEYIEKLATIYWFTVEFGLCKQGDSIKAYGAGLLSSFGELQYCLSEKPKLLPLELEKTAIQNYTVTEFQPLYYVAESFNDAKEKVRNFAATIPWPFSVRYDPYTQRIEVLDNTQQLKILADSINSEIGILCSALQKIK
The test is described as follows: Cell Based Phenylalanine Flux Assay.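 Further: after compound treatment, cells received sepiapterin plus isotope-labelled Phenylalanine for 4 hours, then labelled Tyrosine in the medium was quantified, 10-point 2-fold dilution series run in duplicate.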 The conditions noted are these: A375 cells expressing human PAH R408W; 24 hrs compound incubation; 13C-Tyrosine by LC-MS; average where tested multiple times; read-out: AC50.
Regarding `Cc1cccn2nc([C@H]3c4nc[nH]c4CCN3c3ccc(C(F)(F)F)cn3)cc12` [Example 1940, (R)-4-(4-methylpyrazolo[1,5-a]pyridin-2-yl)-5-(5-(trifluoromethyl)pyridin-2-yl)-4,5,6,7-tetrahydro-1H-imidazo[4,5-c]pyridine], the AC50 was over 5 µM.
As for `Cc1cccn2nc([C@@H]3c4nc[nH]c4CCN3c3ccc(C(F)(F)F)cn3)cc12` [Example 1941, (S)-4-(4-methylpyrazolo[1,5-a]pyridin-2-yl)-5-(5-(trifluoromethyl)pyridin-2-yl)-4,5,6,7-tetrahydro-1H-imidazo[4,5-c]pyridine], the figure is under 0.5 µM; as for `Fc1cccn2nc([C@@H]3c4nc[nH]c4CCN3c3ccc(C(F)(F)F)cn3)cc12` [Example 1943, (S)-4-(4-fluoropyrazolo[1,5-a]pyridin-2-yl)-5-(5-(trifluoromethyl)pyridin-2-yl)-4,5,6,7-tetrahydro-1H-imidazo[4,5-c]pyridine], under 0.5 µM.
As for `Cc1cccn2nc([C@@H]3c4nc[nH]c4CCN3C(=O)c3ocnc3C3CC3)cc12` [Example 1944, (S)-(4-cyclopropyloxazol-5-yl)(4-(4-methylpyrazolo[1,5-a]pyridin-2-yl)-1,4,6,7-tetrahydro-5H-imidazo[4,5-c]pyridin-5-yl)methanone], the figure is under 0.5 µM; as for `Cc1cccn2nc([C@H]3c4nc[nH]c4CCN3C(=O)c3ocnc3C3CC3)cc12` [Example 1945, (R)-(4-cyclopropyloxazol-5-yl)(4-(4-methylpyrazolo[1,5-a]pyridin-2-yl)-1,4,6,7-tetrahydro-5H-imidazo[4,5-c]pyridin-5-yl)methanone], 1 to 5 µM.
Turning to `CC(C)c1cccn2nc([C@@H]3c4nc[nH]c4CCN3C(=O)c3nnc(-c4cnn(C(F)(F)F)c4)o3)cc12` [Example 1946, (S)-(4-(4-isopropylpyrazolo[1,5-a]pyridin-2-yl)-1,4,6,7-tetrahydro-5H-imidazo[4,5-c]pyridin-5-yl)(5-(1-(trifluoromethyl)-1H-pyrazol-4-yl)-1,3,4-oxadiazol-2-yl)methanone], the AC50 was under 0.5 µM.
For `CC(C)c1cccn2nc([C@H]3c4nc[nH]c4CCN3C(=O)c3nnc(-c4ccn(C)n4)o3)cc12` [Example 1950, (R)-(4-(4-isopropylpyrazolo[1,5-a]pyridin-2-yl)-1,4,6,7-tetrahydro-5H-imidazo[4,5-c]pyridin-5-yl)(5-(1-methyl-1H-pyrazol-3-yl)-1,3,4-oxadiazol-2-yl)methanone] the value was over 5 µM; for `CC(C)c1cccn2nc([C@@H]3c4nc[nH]c4CCN3C(=O)c3nnc(-c4ccn(C)n4)o3)cc12` [Example 1951, (S)-(4-(4-isopropylpyrazolo[1,5-a]pyridin-2-yl)-1,4,6,7-tetrahydro-5H-imidazo[4,5-c]pyridin-5-yl)(5-(1-methyl-1H-pyrazol-3-yl)-1,3,4-oxadiazol-2-yl)methanone], under 0.5 µM.
For `Fc1cccc(N2CCc3[nH]cnc3[C@@H]2c2cc3c(F)cccn3n2)n1` [Example 1954, (R)-4-(4-fluoropyrazolo[1,5-a]pyridin-2-yl)-5-(6-fluoropyridin-2-yl)-4,5,6,7-tetrahydro-1H-imidazo[4,5-c]pyridine] the value was 1 to 5 µM; for `Fc1cccc(N2CCc3[nH]cnc3[C@H]2c2cc3c(F)cccn3n2)n1` [Example 1955, (S)-4-(4-fluoropyrazolo[1,5-a]pyridin-2-yl)-5-(6-fluoropyridin-2-yl)-4,5,6,7-tetrahydro-1H-imidazo[4,5-c]pyridine], under 0.5 µM; for `CC(C)(F)c1ncc(C(=O)N2CCc3[nH]cnc3[C@H]2c2cc3ccccn3n2)o1` [Example 1957, (S)-(2-(2-fluoropropan-2-yl)oxazol-5-yl)(4-(pyrazolo[1,5-a]pyridin-2-yl)-1,4,6,7-tetrahydro-5H-imidazo[4,5-c]pyridin-5-yl)methanone], 0.5 to 1 µM.
With `Cc1cccn2nc([C@@H]3c4nc[nH]c4CCN3C(=O)c3cnc(-c4cnn(C)c4)o3)cc12` [Example 1960, (S)-(2-(1-methyl-1H-pyrazol-4-yl)oxazol-5-yl)(4-(4-methylpyrazolo[1,5-a]pyridin-2-yl)-1,4,6,7-tetrahydro-5H-imidazo[4,5-c]pyridin-5-yl)methanone], the concentration at half-maximal activity (AC50) is 0.5 to 1 µM.
As for `Cc1cccn2nc([C@H]3c4nc[nH]c4CCN3C(=O)c3cnc(-c4cnn(C)c4)o3)cc12` [Example 1961, (R)-(2-(1-methyl-1H-pyrazol-4-yl)oxazol-5-yl)(4-(4-methylpyrazolo[1,5-a]pyridin-2-yl)-1,4,6,7-tetrahydro-5H-imidazo[4,5-c]pyridin-5-yl)methanone], the figure is over 5 µM; as for `Cc1cccn2nc([C@@H]3c4nc[nH]c4CCN3C(=O)c3cnc(-c4cnn(C)c4C)o3)cc12` [Example 1962, (S)-(2-(1,5-dimethyl-1H-pyrazol-4-yl)oxazol-5-yl)(4-(4-methylpyrazolo[1,5-a]pyridin-2-yl)-1,4,6,7-tetrahydro-5H-imidazo[4,5-c]pyridin-5-yl)methanone], 0.5 to 1 µM; as for `Cc1cccn2nc([C@@H]3c4nc[nH]c4CCN3C(=O)c3cnc(-c4ccccn4)o3)cc12` [Example 1964, (S)-(4-(4-methylpyrazolo[1,5-a]pyridin-2-yl)-1,4,6,7-tetrahydro-5H-imidazo[4,5-c]pyridin-5-yl)(2-(pyridin-2-yl)oxazol-5-yl)methanone], 0.5 to 1 µM.
For `Cc1cccn2nc([C@H]3c4nc[nH]c4CCN3C(=O)c3cnc(-c4ccccn4)o3)cc12` [Example 1965, (R)-(4-(4-methylpyrazolo[1,5-a]pyridin-2-yl)-1,4,6,7-tetrahydro-5H-imidazo[4,5-c]pyridin-5-yl)(2-(pyridin-2-yl)oxazol-5-yl)methanone] the value was over 5 µM.
As for `O=C(c1nnc(-c2ccccn2)s1)N1CCc2[nH]cnc2[C@H]1c1cc2ccccn2n1` [Example 1966, (S)-(4-(pyrazolo[1,5-a]pyridin-2-yl)-1,4,6,7-tetrahydro-5H-imidazo[4,5-c]pyridin-5-yl)(5-(pyridin-2-yl)-1,3,4-thiadiazol-2-yl)methanone], the figure is under 0.5 µM; as for `O=C(c1nnc(-c2ccccn2)s1)N1CCc2[nH]cnc2[C@@H]1c1cc2ccccn2n1` [Example 1967, (R)-(4-(pyrazolo[1,5-a]pyridin-2-yl)-1,4,6,7-tetrahydro-5H-imidazo[4,5-c]pyridin-5-yl)(5-(pyridin-2-yl)-1,3,4-thiadiazol-2-yl)methanone], over 5 µM; as for `Cc1cccn2nc([C@@H]3c4nc[nH]c4CCN3C(=O)c3nnc(-c4cncnc4)o3)cc12` [Example 1972, (S)-(4-(4-methylpyrazolo[1,5-a]pyridin-2-yl)-1,4,6,7-tetrahydro-5H-imidazo[4,5-c]pyridin-5-yl)(5-(pyrimidin-5-yl)-1,3,4-oxadiazol-2-yl)methanone], 0.5 to 1 µM.
On to `Cc1cccn2nc([C@H]3c4nc[nH]c4CCN3C(=O)c3nnc(-c4cncnc4)o3)cc12` [Example 1973, (R)-(4-(4-methylpyrazolo[1,5-a]pyridin-2-yl)-1,4,6,7-tetrahydro-5H-imidazo[4,5-c]pyridin-5-yl)(5-(pyrimidin-5-yl)-1,3,4-oxadiazol-2-yl)methanone], for which the half-maximal activity concentration (AC50) is over 5 µM.
